Measurements published in ChEMBL document CHEMBL1152438, “Design, synthesis, and structure-activity relationships of aminopyridine N-oxides, a novel scaffold for the potent and selective inhibition of p38 mitogen activated protein kinase” (J Med Chem, 2009).
≈ marks a conversion by molar mass, not a printed value.

Columns and labels:
[1] = Oral bioavailability in rat at 10 mg/kg; type: ADME, organism-based; conditions: in vivo
[2] = Solubility at pH 9.0; type: physicochemical; conditions: buffer
[3] = Half life in rat at 0.5 mg/kg, iv; type: ADME, organism-based; parameters: dose 0.5 mg/kg, route intravenous; conditions: in vivo
[4] = Solubility at pH 0.1; type: physicochemical; conditions: buffer
[5] = Cmax in rat at 10 mg/kg, po; type: ADME, organism-based; parameters: dose 10 mg/kg, route oral; conditions: in vivo
[6] = Volume of distribution at steady state in rat at 0.5 mg/kg, iv; type: ADME, organism-based; parameters: dose 0.5 mg/kg, route intravenous; conditions: in vivo, read-out: Vdss
[7] = Tmax in rat at 10 mg/kg, po; type: ADME, organism-based; parameters: dose 10 mg/kg, route oral; conditions: in vivo
[8] = Clearance in rat at 0.5 mg/kg, iv; type: ADME, organism-based; parameters: dose 0.5 mg/kg, route intravenous; conditions: in vivo
[9] = AUC (0 to 6 hrs) in rat at 10 mg/kg, po; type: ADME, organism-based; parameters: time < 6 hr, dose 10 mg/kg, route oral; conditions: plasma
[10] = Solubility at pH 7.4; type: physicochemical; conditions: buffer
[11] = Volume of distribution at steady state in rat at 1 mg/kg, iv; type: ADME, organism-based; parameters: dose 1 mg/kg, route intravenous; conditions: in vivo, read-out: Vdss
[12] = Half life in rat at 1 mg/kg, iv; type: ADME, organism-based; parameters: dose 1 mg/kg, route intravenous; conditions: in vivo
[13] = Clearance in rat at 1 mg/kg, iv; type: ADME, organism-based; parameters: dose 1 mg/kg, route intravenous; conditions: in vivo

solubility [2] [µg/mL]	solubility [4] [µg/mL]	solubility [10] [µg/mL]	SMILES	also measured
> 1000	41 (≈ 107 µM)	> 1000	Cc1cc(C(=O)O)ccc1-c1c(N)c(C(=O)c2ccc(F)cc2F)cc[n+]1[O-]	–
–	> 1000	51 (≈ 109 µM)	Cc1cc(OCCN2CCOCC2)ccc1-c1c(N)c(C(=O)c2ccc(F)cc2F)cc[n+]1[O-]	–
89 (≈ 215 µM)	24 (≈ 57.9 µM)	67 (≈ 162 µM)	COCCOc1ccc(-c2c(N)c(C(=O)c3ccc(F)cc3F)cc[n+]2[O-])c(C)c1	–
–	44 (≈ 123 µM)	37 (≈ 104 µM)	Cc1cc(O)ccc1-c1c(N)c(C(=O)c2ccc(F)cc2F)cc[n+]1[O-]	–

The remaining lines, values behind:

SMILES	solubility [2] [µg/mL]	solubility [4] [µg/mL]	solubility [10] [µg/mL]	also measured
Cc1ccccc1-c1c(N)c(C(=O)c2ccc(F)cc2F)cc[n+]1[O-]	74 (≈ 217 µM)	110 (≈ 323 µM)	63 (≈ 185 µM)	bioavailability [1]: 75%; half-life [3]: 1.6 h; Cmax [5]: 4.7 µM; Vd [6]: 2.3 L/kg; Tmax [7]: 0.75 h; clearance [8]: 16.7 mL/min/kg; AUC(0-t) at 6 h [9]: 22.2 µM·h
Nc1c(C(=O)c2ccc(F)cc2F)cc[n+]([O-])c1-c1c(F)cccc1F	2 (≈ 5.52 µM)	–	4 (≈ 11 µM)	–
Nc1c(C(=O)c2ccc(F)cc2F)cc[n+]([O-])c1-c1ccccc1Cl	39 (≈ 108 µM)	66 (≈ 183 µM)	59 (≈ 164 µM)	bioavailability [1]: 23%; Cmax [5]: 11.9 µM; Vd [11]: 1.8 L/kg; half-life [12]: 14.8 h; Tmax [7]: 3.5 h; clearance [13]: 1.7 mL/min/kg; AUC(0-t) at 6 h [9]: 54.4 µM·h
Cc1cccc(C)c1-c1c(N)c(C(=O)c2ccc(F)cc2F)cc[n+]1[O-]	70 (≈ 198 µM)	40 (≈ 113 µM)	69 (≈ 195 µM)	–
COCCNC(=O)c1ccc(-c2c(N)c(C(=O)c3ccc(F)cc3F)cc[n+]2[O-])c(C)c1	49 (≈ 111 µM)	54 (≈ 122 µM)	46 (≈ 104 µM)	–
